Test [1] concerns the target T1, Translocator protein (Rattus norvegicus, UniProt P16257). As to the kind of experiment: Inhibition of binding of [3H]-PK 11195 to peripheral-type benzodiazepine receptor (PBR) from rat cortex homogenate.
Test [2] has as its target T1, Translocator protein. Kind of test: Binding affinity against peripheral-type benzodiazepine receptor (PBR) from rat cortex homogenate using [3H]-PK 11195 as radioligand.
Test [3] deals with T1, Translocator protein. Kind of test: Displacement [3H]-PK 11195 from rat adrenal peripheral-type benzodiazepine receptor (PBR).
The target in test [4] is T1, Translocator protein. As to the kind of experiment: Displacement of [3H]-Ro- 5-4864 from rat adrenal peripheral-type benzodiazepine receptor (PBR). In general terms: Loss of bound radioactivity is the signal in a displacement assay; it reports binding, not function.

Experimental findings from ChEMBL document CHEMBL1129620 (J Med Chem, 1996) are described below.

As usually defined, the IC50 is the concentration that inhibits the measured activity by half. Low readings indicate inhibition by little substance, high ones a need for much substance. The term Ki denotes a dissociation constant, usually derived from enzyme kinetics or from competition with a known ligand. Read a high Ki as lower affinity.

T1 sequence (P16257 whole entry, looked up): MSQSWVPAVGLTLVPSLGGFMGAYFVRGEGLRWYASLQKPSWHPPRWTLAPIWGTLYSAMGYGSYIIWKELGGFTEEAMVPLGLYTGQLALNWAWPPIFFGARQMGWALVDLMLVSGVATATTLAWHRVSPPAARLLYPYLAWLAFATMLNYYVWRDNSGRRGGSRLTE

Take `CC(=O)OCC1=C(c2ccccc2)Oc2ccccc2-n2cccc21`: the IC50 on Translocator protein [1] came out at 1930 nM. Further, the affinity on Translocator protein [2], expressed as Ki, was 754 nM.

Compound `CN(C)C(=O)OC1=C(c2ccc(N=[N+]=[N-])cc2)Oc2ccccc2-n2cccc21` returned an IC50 on Translocator protein [1] of 3.6 nM. Further, the Ki on Translocator protein [3] came to 4.8 nM; on Translocator protein [4], 3.6 nM; at Translocator protein [2], 1.4 nM.

`CCC1=C(OC(=O)N(C)C)c2cccn2-c2ccccc2O1` had an IC50 on Translocator protein [1] of 589 nM. Besides, affinity at Translocator protein [2] was put at a Ki of 230 nM.

The compound `CCN(CC)C(=O)OC1=C(c2ccccc2)Oc2ccccc2-n2cccc21` came in with an IC50 on Translocator protein [1] of 0.68 nM. This compound also returned a Ki at Translocator protein [2] of 0.26 nM.

On Translocator protein [2], `CC(=O)OC1=C(c2ccc(Cl)cc2)Sc2ccccc2-n2cccc21` registered a Ki of 11.7 nM.

In the case of `CC(=O)OC1=C(c2ccccc2)Oc2cc3ccccc3cc2-n2cccc21`, the IC50 at Translocator protein [1] was found to be 278 nM. On Translocator protein [2], this compound gave a Ki of 108 nM.

Regarding `CN(C)C(=O)OC1=C(c2ccccc2)Sc2c(Cl)cccc2-n2cccc21`, the Ki is 2.5 nM at Translocator protein [3], 2.6 nM at Translocator protein [4] and 1.8 nM at Translocator protein [2].

The compound `CCC1=C(OC(C)=O)c2cccn2-c2ccccc2O1` displayed an IC50 on Translocator protein [1] greater than 5000 nM.

On to `COc1ccc(C2=C(OC(=O)c3cccnc3)c3cccn3-c3ccccc3S2)cc1`, for which the IC50 at Translocator protein [1] was greater than 100000 nM.

For `CN(C)C(=O)OC1=C(c2ccccc2)Sc2ccccc2-n2cccc21`, the Ki on Translocator protein [2] came out at 3.5 nM.

As to `CC(=O)C1=C(c2ccccc2)Oc2ccccc2-n2cccc21`, the IC50 at Translocator protein [1] was determined as 64.6 nM. Further, at Translocator protein [2], the affinity corresponds to a Ki of 25.2 nM.

Take `CC(=O)OC1=C(c2ccccc2)Sc2cc(C)ccc2-n2cccc21`: affinity on Translocator protein [2] was put at a Ki of 44 nM.

Consider `CCN(CC)C(=O)OC1=C(c2ccc(C)cc2)Oc2ccccc2-n2cccc21`, for which the IC50 on Translocator protein [1] stood at 0.94 nM. Further, the figures for the Ki on Translocator protein [3], at Translocator protein [4] and on Translocator protein [2] were 1.9 nM, 1.9 nM and 0.36 nM, respectively.

`O=C(OC1=C(c2ccccc2)Oc2ccccc2-n2cccc21)C1CCCCC1` gave an IC50 at Translocator protein [1] of 81.9 nM. Besides, the affinity on Translocator protein [2] corresponds to a Ki of 32 nM.

Consider `CC(=O)OC1=C(c2ccc3ccccc3c2)Oc2ccccc2-n2cccc21`, for which the IC50 at Translocator protein [1] was determined as 76.6 nM. In addition, on Translocator protein [2], the Ki is 30 nM.

The compound `CN(C)C(=O)OC1=C(c2ccccc2)Oc2c(Cl)cccc2-n2cccc21` yielded an IC50 at Translocator protein [1] of 1.3 nM. Moreover, the Ki at Translocator protein [2] was 0.51 nM.

At Translocator protein [2], `CC(=O)OC1=C(c2ccccc2)Sc2ccc(C)cc2-n2cccc21` registered a Ki of 263 nM.

`CCN(CC)C(=S)OC1=C(c2ccccc2)Oc2ccccc2-n2cccc21` yielded an IC50 at Translocator protein [1] of 3.8 nM. Further, the Ki at Translocator protein [2] stood at 1.5 nM.

At Translocator protein [1], `CC(=O)OC1=C(c2ccc(C)cc2)Oc2ccccc2-n2cccc21` showed an IC50 of 2.3 nM. For the same compound, the Ki is 2.8 nM on Translocator protein [3], 1.7 nM on Translocator protein [4] and 0.91 nM on Translocator protein [2].

`CC(=O)OC1=C(c2ccccc2)Oc2ccccc2-n2cccc21` had an IC50 on Translocator protein [1] of 12.1 nM. Affinity at Translocator protein [2] was put at a Ki of 4.7 nM.

In turn, `CC(=O)OC1=C(c2ccccc2)Sc2ccccc2-n2cccc21` showed a Ki at Translocator protein [2] of 7.6 nM.

In turn, `COC(=O)C1=C(c2ccccc2)Oc2ccccc2-n2cccc21` had an IC50 on Translocator protein [1] of 148 nM. The same compound gave a Ki on Translocator protein [2] of 57.8 nM.
